Test systems include 786-0; A549; HCT-15; HL-60; HOP-62; HT-29; IGROV-1; MOLT-4; OVCAR-3; OVCAR-4; OVCAR-5; SF-295; SK-MEL-28; SN12C; SNB-19; SR; U-251; UACC-257; UACC-62.
Holding throughout (assay): NCI tumour cell line growth inhibition, 48 h

Data on 11 compounds can be found in ChEMBL document CHEMBL1201862, “PubChem BioAssay data set” (2004).

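Results reflect a 48-hour exposure of cells in 96-well plates to compound at five concentrations. GI50 = concentration required for 50% inhibition of growth.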 Active and inactive are the calls of the source. Cut-off read from the data, not from the text of the source: active = GI50 up to about 1.1 µM and inactive = higher.

`CC(=O)CSCc1ccccn1`: the GI50 was 97.1 µM (inactive) in the test with 786-0; 62.5 µM (inactive) in the test on A549; 86.5 µM with HCT-15; 29.1 µM (inactive) in the test on HL-60; 42.4 µM (inactive) with HOP-62; 51.3 µM (inactive) in the test on HT-29. Further, the GI50 was 37.8 µM (inactive) in the test on IGROV-1; 20.7 µM (inactive) in the test on MOLT-4; 30.3 µM (inactive) in the test with OVCAR-3; 83.8 µM (inactive) in the test on OVCAR-4; > 100 µM (inactive) in the test with OVCAR-5; 80.9 µM (inactive) in the test on SF-295. Also, the GI50 with SK-MEL-28 was 40.2 µM (inactive); with SN12C, 75.5 µM (inactive); with SNB-19 it was 50.9 µM (inactive); in the test with SR, 21.5 µM (inactive); with U-251, 32.2 µM (inactive); in the test with UACC-257, 41.1 µM (inactive). In the test on UACC-62, the GI50 is 31.3 µM (inactive).

In the case of `CN(C)CCSc1cccc(-c2cc(-c3cccc(SCCN(C)C)c3)nc(SCCN(C)C)n2)c1`, the GI50 in the test with 786-0 was 7.85 µM (inactive); in the test on A549, 1.71 µM (inactive); with HCT-15 it was 2.18 µM; in the test on HL-60, 1.85 µM (inactive); in the test with HOP-62, 16.3 µM (inactive); in the test with HT-29, 1.55 µM (inactive). The GI50 in the test with IGROV-1 was 3.37 µM (inactive); in the test on MOLT-4, 1.63 µM (inactive); in the test with OVCAR-3, 10.2 µM (inactive); in the test with OVCAR-4 it was 1.67 µM (inactive); in the test with OVCAR-5, 6.79 µM (inactive); with SF-295 it was 2 µM (inactive). For the same compound, the GI50 is 1.93 µM (inactive) in the test with SK-MEL-28; 12.1 µM (inactive) in the test with SN12C; 1.82 µM (inactive) in the test on SR; 1.91 µM (inactive) with U-251; 1.59 µM (inactive) in the test on UACC-257; 17.5 µM (inactive) in the test with UACC-62.

In the case of `N#Cc1c(-c2ccccc2)c(C=O)c(=O)n2c1[nH]c1ccccc12`, the GI50 is > 100 µM (inactive) in the test with 786-0; > 100 µM (inactive) in the test on A549; 70 µM in the test with HCT-15; 56.9 µM (inactive) with HL-60; 92 µM (inactive) in the test on HT-29; > 100 µM (inactive) with IGROV-1. For the same compound, the GI50 in the test on MOLT-4 is 33.7 µM (inactive); in the test on OVCAR-4, 20.5 µM (inactive); with OVCAR-5, > 100 µM (inactive); with SF-295, > 100 µM (inactive); in the test with SK-MEL-28 it was 23.9 µM (inactive); in the test on SN12C, 45.3 µM (inactive). Besides, the GI50 was 50.7 µM (inactive) in the test with SNB-19; 67.6 µM (inactive) with SR; 50.8 µM (inactive) in the test with U-251; > 100 µM (inactive) with UACC-257; 40.7 µM (inactive) with UACC-62.

As to `Cc1nc([N+](=O)[O-])cn1CC(=N)N`, the GI50 in the test on 786-0 was > 100 µM (inactive); in the test on A549 it was > 100 µM (inactive); in the test with HCT-15, greater than 100 µM; with HL-60 it was > 100 µM (inactive); in the test with HOP-62 it was > 100 µM (inactive); with HT-29 it was > 100 µM (inactive). The GI50 in the test with IGROV-1, with MOLT-4, in the test on OVCAR-3, with OVCAR-4, with SF-295 and in the test with SK-MEL-28 was > 100 µM (inactive) throughout. The GI50 with SN12C, in the test with SNB-19, in the test with SR, with U-251, in the test with UACC-257 and in the test with UACC-62 was > 100 µM (inactive) throughout.

Take `Cc1ccc(S(=O)(=O)OCOS(=O)(=O)c2ccc(C)cc2)cc1`: the GI50 in the test on 786-0 was > 100 µM (inactive); in the test with A549 it was > 100 µM (inactive); in the test on HCT-15 it was greater than 100 µM; in the test with HL-60 it was > 100 µM (inactive); in the test with HOP-62 it was > 100 µM (inactive); in the test with IGROV-1, > 100 µM (inactive). In addition, the GI50 in the test with MOLT-4, in the test with OVCAR-3, with OVCAR-5, in the test with SF-295, with SK-MEL-28 and with SN12C was > 100 µM (inactive) in each case. Also, the GI50 in the test with SNB-19 is > 100 µM (inactive); with SR, > 100 µM (inactive); in the test on U-251, > 100 µM (inactive); with UACC-257 it was > 100 µM (inactive); with UACC-62, > 10 µM (inactive).

For the compound `COc1ccc(OC(=O)CC2Cc3cc(OC)c(OC)c(OC)c3-c3ccc(SC)c(=O)cc32)cc1` (stereo not given), the GI50 with 786-0 is 0.0551 µM (active); with A549, 0.762 µM (active); in the test with HCT-15, 0.467 µM; with HL-60, 0.0893 µM (active); in the test with HOP-62, 0.183 µM (active); in the test with HT-29, 0.342 µM (active). Besides, the GI50 in the test on IGROV-1 was 1.85 µM (inactive); with MOLT-4, 0.387 µM (active); in the test on OVCAR-3, 0.185 µM (active); in the test with OVCAR-4, 11.7 µM (inactive); in the test with SF-295 it was 0.0794 µM (active); in the test on SK-MEL-28 it was 0.698 µM (active). Besides, the GI50 in the test on SN12C was 0.3 µM (active); in the test on SNB-19, 0.12 µM (active); in the test on SR, 0.463 µM (active); in the test with U-251, 0.224 µM (active); in the test with UACC-257, 0.273 µM (active); with UACC-62 it was 0.232 µM (active).

`CCOC(=O)N1CCc2cc(OC)c(OC)cc2/C1=C/c1ccc(OC)c(OC)c1`: the GI50 in the test on 786-0 was 42.8 µM (inactive); with A549 it was 43.1 µM (inactive); in the test with HCT-15 it was 36.1 µM; with HL-60, 23.6 µM (inactive); in the test with HOP-62, 84.5 µM (inactive); with HT-29 it was 28.4 µM (inactive). Also, the GI50 was > 100 µM (inactive) with IGROV-1; 33.2 µM (inactive) in the test on MOLT-4; 61.4 µM (inactive) in the test with OVCAR-3; 94 µM (inactive) with OVCAR-5; 52.2 µM (inactive) with SF-295; > 100 µM (inactive) in the test on SK-MEL-28. For the same compound, the GI50 was 35.6 µM (inactive) in the test on SN12C; 58.3 µM (inactive) in the test with SNB-19; 34.1 µM (inactive) in the test on SR; 44.5 µM (inactive) in the test with U-251; 37.2 µM (inactive) in the test on UACC-257; 55.8 µM (inactive) in the test with UACC-62.

On to `CCOc1ccccc1NC(=O)C(C#N)C1=C(Cl)C(=O)c2ccccc2C1=O` (stereo not given), for which the GI50 with 786-0 was 1.79 µM (inactive); in the test on A549, 1.95 µM (inactive); with HCT-15, 1.47 µM; with HL-60, 0.486 µM (active); in the test with HOP-62 it was 6.04 µM (inactive); with HT-29 it was 2.29 µM (inactive). In addition, the GI50 in the test with IGROV-1 was 2.13 µM (inactive); in the test with MOLT-4, 1.17 µM (inactive); in the test on OVCAR-3 it was 1.6 µM (inactive); in the test on OVCAR-4 it was 1.94 µM (inactive); in the test with OVCAR-5 it was 2.14 µM (inactive); in the test on SF-295, 1.72 µM (inactive). The GI50 in the test with SK-MEL-28 is 2.03 µM (inactive); in the test on SN12C, 1.79 µM (inactive); with SNB-19, 2.13 µM (inactive); in the test with SR, 1.33 µM (inactive); in the test with U-251 it was 1.71 µM (inactive); in the test with UACC-257, 1.06 µM (active). In addition, the GI50 in the test on UACC-62 was 1.83 µM (inactive).

As to `CN(C)C=[N+]=[N-]`, the GI50 was > 100 µM (inactive) with 786-0; > 100 µM (inactive) with A549; greater than 100 µM in the test on HCT-15; > 100 µM (inactive) with HL-60; > 100 µM (inactive) with HOP-62; > 100 µM (inactive) with HT-29. Moreover, the GI50 with IGROV-1, in the test on MOLT-4, with OVCAR-3, in the test with OVCAR-4, with OVCAR-5 and in the test on SF-295 was > 100 µM (inactive) in each case. The GI50 in the test with SN12C, with SNB-19, with SR, with U-251, in the test with UACC-257 and in the test with UACC-62 was > 100 µM (inactive) each time.

For the compound `CN(C)Cc1cc(/N=N/c2ccccc2)cc(CN(C)C)c1O`, the GI50 in the test on 786-0 was 36.2 µM (inactive); in the test on A549, > 100 µM (inactive); with HCT-15, 56.6 µM; with HL-60, 21.9 µM (inactive); in the test with HOP-62 it was > 100 µM (inactive); in the test on HT-29 it was 73.8 µM (inactive). For the same compound, the GI50 was 85.7 µM (inactive) in the test on IGROV-1; 45.8 µM (inactive) in the test with MOLT-4; 27.4 µM (inactive) in the test with OVCAR-3; 35.8 µM (inactive) in the test on OVCAR-4; > 100 µM (inactive) in the test on OVCAR-5; > 100 µM (inactive) in the test with SF-295. In addition, the GI50 in the test on SK-MEL-28 is > 100 µM (inactive); with SN12C, > 100 µM (inactive); in the test with SNB-19, > 100 µM (inactive); with SR it was > 100 µM (inactive); with U-251, 99.1 µM (inactive); in the test with UACC-257, > 100 µM (inactive). In addition, the GI50 in the test on UACC-62 is > 100 µM (inactive).

With `CCNC(=O)C(O)C1(O)CCC2[C@@H]3CCC4=CC(=O)C=C[C@]4(C)C3[C@@H](O)C[C@@]21C` (stereo not given in full), the GI50 is > 100 µM (inactive) in the test on 786-0; 86.9 µM (inactive) in the test with A549; greater than 100 µM in the test on HCT-15; 29.8 µM (inactive) with HL-60; > 100 µM (inactive) with HOP-62; > 100 µM (inactive) in the test with HT-29. The GI50 is > 100 µM (inactive) in the test on IGROV-1; 52.1 µM (inactive) in the test with MOLT-4; > 100 µM (inactive) in the test on OVCAR-3; > 100 µM (inactive) in the test with OVCAR-4; > 100 µM (inactive) in the test with OVCAR-5; > 100 µM (inactive) with SF-295. The GI50 in the test on SK-MEL-28 is > 100 µM (inactive); with SN12C it was 53.2 µM (inactive); in the test on SNB-19, > 100 µM (inactive); in the test with SR it was 63 µM (inactive); with U-251, > 100 µM (inactive); in the test with UACC-257, > 100 µM (inactive). Moreover, the GI50 in the test on UACC-62 is > 100 µM (inactive).
